Measured values as given in patent publication US10351575B2, “Bicyclic urea, thiourea, guanidine and cyanoguanidine compounds useful for the treatment of pain” (Array BioPharma Inc., priority 2012, dated 2019).

Target: His-tagged recombinant human TrkA (Homo sapiens (Human), UniProt P04629)
Test: TrkA LanthaScreen Eu Kinase Binding Assay
Settings: averaged IC50; TR-FRET binding, 60 min, 22° C.; read-out: TrkA Enzyme IC50
Method in brief: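 TR-FRET binding: 5 nM His-tagged human TrkA cytoplasmic domain with 4 nM Alexa-Fluor Tracer 236, 2 nM biotin anti-His and 2 nM Eu-streptavidin. Buffer was 25 mM MOPS pH 7.5, 5 mM MgCl2, 0.005% Triton X-100, 2% DMSO, 60 min at 22° C. IC50 from a four-parameter fit of ratiometric percent of control.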

Chain of His-tagged recombinant human TrkA (P04629 440-796): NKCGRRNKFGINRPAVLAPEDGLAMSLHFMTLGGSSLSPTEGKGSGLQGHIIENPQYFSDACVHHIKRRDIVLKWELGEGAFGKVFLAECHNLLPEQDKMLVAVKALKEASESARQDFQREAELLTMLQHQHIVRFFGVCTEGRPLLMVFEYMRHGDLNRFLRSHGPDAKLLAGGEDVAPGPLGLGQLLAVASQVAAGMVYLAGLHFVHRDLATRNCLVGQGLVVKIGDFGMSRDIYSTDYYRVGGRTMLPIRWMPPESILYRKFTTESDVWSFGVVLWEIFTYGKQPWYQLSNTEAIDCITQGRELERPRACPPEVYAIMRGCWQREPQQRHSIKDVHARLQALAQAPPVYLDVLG

IC50, < 100 nM:
Cc1c(-c2cnn(C)c2)nn(-c2ccccc2)c1NC(=O)N[C@H]1CCCc2ccccc21 [Example 2, (S)-1-(1′,4-dimethyl-1-phenyl-1H,1′H-3,4′-bipyrazol-5-yl)-3-(1,2,3,4-tetrahydronaphthalen-1-yl)urea]
Cc1c(-c2cnn(C)c2)nn(-c2ccccc2)c1NC(=O)NC1CCOc2cc(F)ccc21 (stereo not drawn) [Example 12, 1-(1′,4-dimethyl-1-phenyl-1H,1′H-[3,4′-bipyrazol]-5-yl)-3-(7-fluorochroman-4-yl)urea]
COCc1ccc2c(c1)C(NC(=O)Nc1c(C)c(-c3cnn(C)c3)nn1-c1ccccc1)COC2 (stereo not drawn) [Example 32, 1-(1′,4-dimethyl-1-phenyl-1H,1′H-[3,4′-bipyrazol]-5-yl)-3-(6-(methoxymethyl)isochroman-4-yl)urea]
